# Earlier results in patent publication US7825159B2, “Mixtures of aromatic esters for marking or tagging organic products, marker compositions comprising the same and manufacturing methods thereof” (United Color Manufacturing, Inc., priority 2006, dated 2010).
# Experiments:
# [1] = with less than 28 wt. % n-octylpyrolidinone co-solvent
# [2] = with less than 28 wt. % n-octylpyrolidinone co-solvent, even with vigorous stirring
structure (smiles),measurement,setting,value
CCCC(=O)Oc1ccc(C2(c3ccc(OC(=O)CCC)c(C)c3)OC(=O)c3ccccc32)cc1C [Cresolphthalein dibutyrate],Precipitation on standing overnight in the freezer,[1],precipitates
same,Dispersion into diesel fuel,[2],will not disperse
